We go through twelve molecules from patent US20120108501A1, “Protease Inhibitors” (priority 2009, published 2012).

Series [1] in a line: Pharmacokinetics of released PEGylated protease inhibitor following P.O. administration of prodrugs in rats. Type of series: in vivo, male Sprague-Dawley rats. On the set-up: AUCall Mean: concentration or dose not given beside the values. To be noted: rats (n = 4-5). The essentials:
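Prodrugs given orally to male Sprague-Dawley rats, with serial blood via jugular catheter into K2EDTA. Plasma levels of test article or released PEGylated inhibitor measured by LC-MS/MS. PK parameters from noncompartmental analysis.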

Series [2] is described as follows: Pharmacokinetics of PEGylated protease inhibitor prodrugs in rats. The class given is in vivo, male Sprague-Dawley rats. Also on record: AUCall / AUC: concentration or dose not given beside the values. The conditions noted are these: prodrug in plasma; for AUCall / Cmax / AUC: mean ± SD; for half-life: read-out: t½(z) (converted); for concentration at 24 hr: read-out: Cmin(24 hr). As to the method: Pharmacokinetic analysis of protease inhibitors described herein was conducted. To evaluate the pharmacokinetics of PEGylated protease inhibitor conjugates with releasable lipophilic attachments, test compounds were administered to male Sprague-Dawley rats.
At various times following test article administration, serial blood samples were collected from indwelling jugular vein catheters and transferred to micro-tubes containing 7.5 μL of 20% w/v K2EDTA as an anticoagulant. Following processing of the blood samples to plasma (10 minutes at 10000 rpm, Centrifuge Model: Kubota 3500), plasma concentrations of the test article or corresponding PEGylated molecule released from the test article was measured using LC-MS/MS methods. Pharmacokinetic parameters were estimated using noncompartmental methods.
Table 3 presents a summary of pharmacokinetic parameters of PEGylated protease inhibitor prodrugs, wherein Cmax is the maximum (peak) concentration, AUCall represents the area under the concentration-time curve from zero to time of last concentration value, T½ is half life, and MRTlast is the mean residence time to last observable concentration

Setting [3] is: mPEG6-atazanavir in plasma after PO administration of mPEG6-ATV or of the listed prodrug.
Setting [4] is: mPEG3-atazanavir in plasma after PO administration of mPEG3-ATV or of the listed prodrug.
Where [5] appears, read: mPEG5-atazanavir in plasma after PO administration of mPEG5-ATV or of the listed prodrug.
Where [6] appears, read: male, Sprague-Dawley, rat, in vivo.
[7] abbreviates: male, Sprague-Dawley, rat, in vivo, read-out: Cmax.
Setting [8] is: male, Sprague-Dawley, rat, oral.
Where [9] appears, read: male, Sprague-Dawley, rat, oral, read-out: Cmax.

Each structure is given as a SMILES string. Structures can show the parent of a compound that is named as a salt. Where two headings read alike, the source gives them in different places.

Turning to `COCCOCCOCCOCCOCCOCCOC(=O)NC(C(=O)NC(Cc1ccccc1)C(CN(Cc1ccc(-c2ccccn2)cc1)NC(=O)C(NC(=O)OC)C(C)(C)C)OC(=O)COCCOC(=O)C(N)Cc1ccccc1)C(C)(C)C.Cl` (stereo not drawn) [mPEG6-Atazanavir-CME-phenylalanine HCl], in series [1] (setting [3]), the “AUCall Mean” value amounted to 351 ng·h/mL, the “Cmax Mean” value is on record as 12.5 ng/mL, the “MRT last Mean” value was found to be 22.1 h and the “Tmax Median” value was 1.00 h. In addition, in series [2], the MRTlast worked out at 0.948 ± 0.0741 h, the AUCall worked out at 6.41 ± 9.53 ng·h/mL and the Cmax was found to be 8.21 ± 12.1 ng/mL.
Consider `COCCOCCOCCOC(=O)NC(C(=O)NC(Cc1ccccc1)C(CN(Cc1ccc(-c2ccccn2)cc1)NC(=O)C(NC(=O)OC)C(C)(C)C)OC(=O)C(N)CC(C)C)C(C)(C)C.Cl` [mono-mPEG3-Atazanavir-L-Leucine, mPEG3-Atazanavir-L-Leucine], for which, in series [1] (setting [4]), the “AUCall Mean” value was 347 ng·h/mL, the “Cmax Mean” value was determined as 66.0 ng/mL, the “MRT last Mean” value was determined as 4.14 h and the “Tmax* Median” value turned out to be 0.750 h. Moreover, in series [2], the MRTlast is 2.73 ± 0.912 h, the “t½(z)” value came out at 3.33 ± 0.958 h, the AUCall was 1930 ± 1170 ng·h/mL and the Cmax is 470 ± 179 ng/mL.
`CCOC(C)OC(CN(Cc1ccc(-c2ccccn2)cc1)NC(=O)C(NC(=O)OC)C(C)(C)C)C(Cc1ccccc1)NC(=O)C(NC(=O)OCCOCCOCCOCCOCCOC)C(C)(C)C` (mixture of isomers) [1-ethoxyethoxy-mPEG5-Atazanivir, ethoxy ethoxy mPEG5-atazanavir]: in series [1] (setting [5]), the “AUCall Mean” value amounted to 329 ng·h/mL, the “Cmax Mean” value came out at 109 ng/mL, the “MRT last Mean” value came to 1.95 h and the “Tmax Median” value amounted to 1.50 h. For the same molecule, in series [2], the MRTlast amounted to 1.80 ± 0.060 h, the “t½(z)” value worked out at 2.14 ± 1.85 h, the “Cmin(24 hr)” value was 0.208 ± 0.416 ng/mL and the AUCall came out at 4960 ± 1730 ng·h/mL. Also, the Cmax in series [2] is on record as 1420 ± 595 ng/mL.
As for `COCCOCCOCCOCCOCCOC(=O)N[C@H](C(=O)N[C@@H](Cc1ccccc1)[C@H](CN(Cc1ccc(-c2ccccn2)cc1)NC(=O)[C@@H](NC(=O)OC)C(C)(C)C)OC(=O)CNC(=O)[C@@H](N)CC(C)C)C(C)(C)C` [Leu-Gly-mPEG5-Atazanavir HCl, Leu-Gly-mPEG5-Atazanavir Hydrochloride], in series [2] (setting [6]), the MRT last came to 2.85 ± 3.68 h and the AUC was found to be 1.53 ± 2.93 ng·h/mL. Further, the Cmax in series [2] (setting [7]) came to 0.479 ± 0.572 ng/mL.
Take `COCCOCCOCCOCCOCCOC(=O)N[C@H](C(=O)N[C@@H](Cc1ccccc1)[C@H](CN(Cc1ccc(-c2ccccn2)cc1)NC(=O)[C@@H](NC(=O)OC)C(C)(C)C)OC(=O)[C@H](CC(C)C)NC(=O)[C@@H](N)Cc1ccccc1)C(C)(C)C` [Phe-Leu-mPEG5-Atazanavir HCl, Phe-Leu-mPEG5-Atazanavir Hydrochloride]: in series [2] (setting [6]), the MRT last was found to be 1.46 ± 0.396 h, the AUC came out at 42.4 ± 11.6 ng·h/mL and the half-life was 1.52 h. For the same molecule, in series [2] (setting [7]), the Cmax worked out at 17 ± 4.2 ng/mL. Also, the “Cmin(24 hr)” value in series [2] is given as “BLQ”.
With `COCCOCCOCCOC(=O)N[C@H](C(=O)N[C@@H](Cc1ccccc1)[C@H](CN(Cc1ccc(-c2ccccn2)cc1)NC(=O)[C@@H](NC(=O)OC)C(C)(C)C)OC(=O)[C@H](Cc1ccccc1)NC(=O)[C@@H](N)C(C)C)C(C)(C)C` [Val-Phe-mPEG3-Atazanavir, Val-Phe-mPEG3-Atazanavir Hydrochloride], in series [2] (setting [6]), the MRT last turned out to be 1.68 ± 0.297 h, the AUC stood at 700 ± 361 ng·h/mL and the half-life is 2.25 ± 1.28 h. In addition, the Cmax in series [2] (setting [7]) is 334 ± 133 ng/mL.
For the molecule `COCCOCCOCCOCCOCCOC(=O)N[C@H](C(=O)N[C@@H](Cc1ccccc1)[C@H](CN(Cc1ccc(-c2ccccn2)cc1)NC(=O)[C@@H](NC(=O)OC)C(C)(C)C)OC(=O)[C@@H](N)CC(C)C)C(C)(C)C` [mPEG5-Atazanavir-L-Leucine], in series [2] (setting [8]), the MRT last turned out to be 1.71 ± 0.327 h, the AUC stood at 487 ± 348 ng·h/mL and the half-life is 2.37 ± 2.19 h. In addition, the Cmax in series [2] (setting [9]) was found to be 191 ± 85.6 ng/mL.
With `COCCOCCOCCOCCOCCOC(=O)N[C@H](C(=O)N[C@@H](Cc1ccccc1)[C@H](CN(Cc1ccc(-c2ccccn2)cc1)NC(=O)[C@@H](NC(=O)OC)C(C)(C)C)OC(=O)CNC(=O)[C@@H](N)C(C)C)C(C)(C)C` [Val-Gly-mPEG5-Atazanavir HCl, Val-Gly-mPEG5-Atazanavir Hydrochloride], in series [2] (setting [6]), the MRT last was 0.779 ± 0.513 h, the AUC turned out to be 14.9 ± 18.7 ng·h/mL and the half-life is 2.95 h. Moreover, the Cmax in series [2] (setting [7]) worked out at 33.7 ± 53.9 ng/mL.
On to `COCCOCCOCCOC(=O)N[C@H](C(=O)N[C@@H](Cc1ccccc1)[C@H](CN(Cc1ccc(-c2ccccn2)cc1)NC(=O)[C@@H](NC(=O)OC)C(C)(C)C)OC(=O)[C@H](Cc1ccccc1)NC(=O)[C@@H](N)Cc1ccccc1)C(C)(C)C` [Phe-Phe-mPEG3-Atazanavir, Phe-Phe-mPEG3-Atazanavir Hydrochloride], for which, in series [2] (setting [6]), the MRT last was 6.27 ± 1.31 h, the concentration at 24 hr amounted to 3.15 ± 0.946 ng/mL, the AUC is 609 ± 157 ng·h/mL and the half-life is 8.31 ± 1.21 h. Moreover, the Cmax in series [2] (setting [7]) worked out at 112 ± 31.6 ng/mL.
In the case of `COCCOCCOCCOCCOCCOC(=O)N[C@@H](C(=O)N[C@@H](Cc1ccccc1)[C@H](CN(Cc1ccc(-c2ccccn2)cc1)NC(=O)[C@H](NC(=O)OC)C(C)(C)C)OC(=O)CCCC(=O)O[C@@H]1[C@@H](O)[C@@H](O)O[C@@H]1[C@H](O)CO)C(C)(C)C` [(5R,10S,11S,14R)-11-benzyl-5,14-di-tert-butyl-3,6,13,16-tetraoxo-8-(4-(pyridin-2-yl)benzyl)-2,17,20,23,26,29,32-heptaoxa-4,7,8,12,15-pentaazatritriacontan-10-yl (2R,3R,4R,5S)-2-((R)-1,2-dihydroxyethyl)-4,5-dihydroxytetrahydrofuran-3-yl glutarate], in series [2] (setting [8]), the MRT last was 11.4 ± 7.37 h, the concentration at 24 hr was determined as 2.64 ± 2.87 ng/mL and the AUC worked out at 78.5 ± 78.2 ng·h/mL. The Cmax in series [2] (setting [9]) worked out at 13.1 ± 12.4 ng/mL.
As for `COCCOCCOCCOCCOCCOC(=O)N[C@H](C(=O)N[C@@H](Cc1ccccc1)[C@H](CN(Cc1ccc(-c2ccccn2)cc1)NC(=O)[C@@H](NC(=O)OC)C(C)(C)C)OC(=O)CNC(=O)[C@@H](N)Cc1ccccc1)C(C)(C)C` [Phe-Gly-mPEG5-Atazanavir HCl, Phe-Gly-mPEG5-Atazanavir Hydrochloride], in series [2] (setting [6]), the MRT last was found to be 0.357 ± 0.129 h and the AUC amounted to 0.341 ± 0.313 ng·h/mL. The Cmax in series [2] (setting [7]) turned out to be 0.895 ± 0.808 ng/mL.
In the case of `COCCOCCOCCOCCOCCOCCOC(=O)N[C@H](C(=O)N[C@@H](Cc1ccccc1)[C@H](CN(Cc1ccc(-c2ccccn2)cc1)NC(=O)[C@@H](NC(=O)OC)C(C)(C)C)OC(=O)[C@H](Cc1ccccc1)NC(=O)[C@@H](N)CC(C)C)C(C)(C)C.Cl` [Leu-Phe-mPEG6-ATV, Leu-Phe-mPEG6-Atazanavir Hydrochloride], in series [1] (setting [3]), the “AUCall Mean” value amounted to 418 ng·h/mL, the “Cmax Mean” value is 37.2 ng/mL, the “MRT last Mean” value was 13.8 h and the “Tmax Median” value amounted to 1.50 h.

A word on the Cmax: it is the peak of the concentration-time curve. As usually defined, the MRT last is a mean duration of stay, worked out from the concentration-time curve. What is called AUC is the area under the concentration-time curve, a measure of exposure.
